{
  "source": "patent US20250154607A1",
  "about": "“ISOTHERMAL AMPLIFICATION OF PATHOGENS” (priority 2021, published 2025)",
  "key": {"nasal ribonuclease": {"test_system": "nasal ribonuclease", "test": "Rapid irreversibility of nasal ribonuclease inactivation (RNase alert assay)", "format": "biochemical", "conditions": "0.2% SDS with or without 40 mM cysteine, 60° C.; immediately diluted into 4% β-cyclodextrin", "experimental": "FIG. 13 depicts data related to the rapid irreversibility of nasal ribonuclease inactivation. 5 μl concentrated nasal swab eluate in TE, an amount equivalent to 2% on a typical nasal swab, was mixed with 45 μl of either lysis buffer containing 0.2% SDS (RBS, solid line), RBS containing 40 mM cysteine (squares), or water (dotted line) all preheated to 60° C. 5 μl was immediately diluted into 45 μl 4% β-cyclodextrin to sequester detergent. The recovered RNase activity was determined with an RNase alert assay; as control for the assay, an equivalent amount of nasal swab eluate was directly added without prior treatment (X). […] Unexpectedly, the effectively irreversible inactivation of ribonucleases thus observed during the practice of this invention was virtually instantaneous (monitored by directly testing ribonuclease activity), unlike prior art methods based upon heat. Also shown in this example is that the inactivation properties described for RNase A are also attributable to ribonucleases naturally occurring in nasal exudates."}, "[1]": {"test_system": "Chlamydia trachomatis elementary bodies", "test": "Lysis of Chlamydia trachomatis elementary bodies, read out by APA", "conditions": "lysis buffer 0.4% SDS, pH 2.2, 2 minutes at 78° C.; compared with heat lysis 5 minutes at 95° C.", "experimental": "Elementary body lysis (˜40/reaction) was probed in this example using an APA-based assay. Elementary bodies (Acrometrix) were added to either cold chlamydia transport media (SPD containing sucrose, phosphate buffer, and glutamic acid), TE (Tris-EDTA 10-1), or lysis buffer containing 0.4% SDS, pH 2.2. The samples in TE or SDS were heated 5 minutes at 95° C. (heat lysis) or 2 minutes at 78° C. (SDS lysis), respectively. Then 5 μl (containing 40 elementary bodies) was added to “wet” APA reaction mix as above (pH 7.6 to facilitate isothermal CAdNTP activation) containing 4% cyclodextrin HP-βCD for isothermal APA (68° C.) with fluorescence from a chlamydia-specific molecular beacon collected every 15 seconds."}, "nasal swab ribonucleases": {"test_system": "nasal swab ribonucleases", "test": "Protection of RNA from nasal swab ribonucleases (influenza B RNA APA)", "format": "biochemical, human"}, "RNase A": {"target": "T1, RNase A (Bos taurus, UniProt P61823)", "T1 sequence (P61823 27-150)": "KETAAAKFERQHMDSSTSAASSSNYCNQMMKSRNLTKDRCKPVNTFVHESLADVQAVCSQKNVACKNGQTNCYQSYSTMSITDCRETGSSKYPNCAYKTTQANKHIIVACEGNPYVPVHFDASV", "test": "Requirements for irreversible RNase inactivation (influenza B RNA APA in presence of RNase A)", "format": "biochemical", "conditions": "500 ng RNase A (10 μg/ml); additions 0.2% SDS, 10 mM DTT, 0.1% Triton X-100 as labelled; 2 minutes at 58° C.; then 4% βCD"}, "Taq polymerase": {"target": "Taq polymerase (Thermus aquaticus, UniProt P19821)", "sequence (P19821 whole entry)": "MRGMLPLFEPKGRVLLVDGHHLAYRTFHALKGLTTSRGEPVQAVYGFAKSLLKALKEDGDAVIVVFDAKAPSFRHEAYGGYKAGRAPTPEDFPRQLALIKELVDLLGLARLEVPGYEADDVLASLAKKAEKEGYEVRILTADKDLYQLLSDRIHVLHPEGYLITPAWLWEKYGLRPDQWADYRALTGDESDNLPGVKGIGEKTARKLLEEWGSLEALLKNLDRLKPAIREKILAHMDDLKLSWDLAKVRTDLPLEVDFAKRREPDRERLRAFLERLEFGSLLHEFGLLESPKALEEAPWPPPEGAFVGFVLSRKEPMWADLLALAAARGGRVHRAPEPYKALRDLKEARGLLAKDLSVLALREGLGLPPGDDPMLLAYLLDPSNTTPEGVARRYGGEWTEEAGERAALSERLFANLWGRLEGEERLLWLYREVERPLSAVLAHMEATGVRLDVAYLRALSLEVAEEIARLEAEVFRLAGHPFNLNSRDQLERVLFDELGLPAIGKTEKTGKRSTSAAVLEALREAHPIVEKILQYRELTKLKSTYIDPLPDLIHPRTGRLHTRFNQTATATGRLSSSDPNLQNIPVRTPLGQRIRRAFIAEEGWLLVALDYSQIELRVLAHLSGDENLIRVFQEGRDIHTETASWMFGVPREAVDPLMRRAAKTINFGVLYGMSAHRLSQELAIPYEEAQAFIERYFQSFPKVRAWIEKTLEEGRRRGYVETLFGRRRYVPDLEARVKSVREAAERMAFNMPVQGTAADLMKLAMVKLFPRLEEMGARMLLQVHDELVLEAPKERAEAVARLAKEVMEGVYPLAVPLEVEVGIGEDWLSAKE", "conditions": "cited from earlier work"}, "9° Nm™ DNA polymerase [2]": {"target": "T2, 9° Nm™ DNA polymerase (Thermococcus sp., UniProt Q56366, E143D)", "T2 sequence (Q56366 whole entry E143D)": "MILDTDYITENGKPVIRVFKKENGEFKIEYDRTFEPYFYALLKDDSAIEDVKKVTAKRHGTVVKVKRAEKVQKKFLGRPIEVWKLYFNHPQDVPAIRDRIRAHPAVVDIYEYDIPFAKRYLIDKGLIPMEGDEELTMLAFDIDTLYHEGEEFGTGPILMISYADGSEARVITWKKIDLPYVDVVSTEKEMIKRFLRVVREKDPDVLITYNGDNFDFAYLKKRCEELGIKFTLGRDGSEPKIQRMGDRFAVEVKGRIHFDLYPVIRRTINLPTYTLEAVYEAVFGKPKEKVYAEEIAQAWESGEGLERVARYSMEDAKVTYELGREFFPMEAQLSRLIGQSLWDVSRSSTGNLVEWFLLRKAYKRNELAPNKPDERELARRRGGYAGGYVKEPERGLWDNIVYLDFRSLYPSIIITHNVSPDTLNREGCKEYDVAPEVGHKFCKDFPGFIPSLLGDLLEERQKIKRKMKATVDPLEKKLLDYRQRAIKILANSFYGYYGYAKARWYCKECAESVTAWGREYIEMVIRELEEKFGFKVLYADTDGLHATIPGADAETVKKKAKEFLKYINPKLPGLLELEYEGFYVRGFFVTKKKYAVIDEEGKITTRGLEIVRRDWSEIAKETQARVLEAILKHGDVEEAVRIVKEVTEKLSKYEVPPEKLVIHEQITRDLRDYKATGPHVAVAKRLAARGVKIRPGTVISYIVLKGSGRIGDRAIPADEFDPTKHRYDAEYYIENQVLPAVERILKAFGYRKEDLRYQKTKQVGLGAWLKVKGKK", "test": "APA amplification of Neisseria gonorrhea DNA with SDS, with or without HPβCD", "format": "biochemical", "conditions": "no protective agent (absence of βCD); 500 copies N. gonorrhea genomic DNA; APA at 68° C.", "experimental": "This example provides SDS complexation analyses of the methods and compositions provided herein. […] Anionic detergent SDS at >0.01% is inhibitory to APA amplification of DNA, but the presence of the protective agent hydroxypropyl β-CD (βCD) allowed amplification to proceed despite≤0.2% SDS. The kinetics of hydroxypropyl β-CD sequestration of SDS were thus sufficiently rapid at a molar ratio of 2:1 (˜14 mM: −7 mM) to prevent 9° Nm™ DNA polymerase inactivation by SDS.\nStandard APA reactions with or without 4% Sigma 389145 HPβCD containing “hot-start” CleanAmp™ deoxynucleotides (CAdNTP) and a sequence-specific molecular beacon detection probe were performed with lyophilized ((supplemented with dextran 40, Trehalose), FIG. 2B) or “wet” (no HPβCD, FIG. 2A) reagents including Tris pH 8.4, KCl, MgSO4, and (NH4)2SO4 Triton X-100, 9° Nm™ DNA polymerase, CAdNTP, primers and probe. For the lyophilized reactions, samples were prepared in 50 μl solution containing MgSO4, and (NH4)2SO4 with (shapes) or without (dashed) 500 copies of N. gonorrhea genomic DNA. After dried reagents were dissolved with the samples, various amounts of SDS were added, as indicated, and solutions were vortexed. For the wet reactions, 45 μl master mix containing all reaction components was added to 5 μl sample containing 1OX SDS (final concentration as indicated), with and without 500 copies of N. gonorrhea genomic DNA. Activation of CAdNTP by 2 minutes 90° C. was followed by APA at 68° C. for 10 minutes with detection of the NG amplification product by fluorescence collected every 15 seconds."}, "9° Nm™ DNA polymerase [3]": {"target": "T2, 9° Nm™ DNA polymerase", "test": "Order-of-addition assay (APA of S. enterica DNA, SDS and hydroxypropyl β-CD)", "format": "biochemical", "experimental": "Order-of-addition assay: Detection time dependent on cyclodextrin addition prior to brief interaction of enzymes with SDS. Since SDS rapidly and irreversibly inactivated 9° Nm™ DNA polymerase, when the enzyme is instead simultaneously exposed to SDS and β-CD, the kinetics of complexation of the latter two substances must be very rapid, compared with the rate of interaction between SDS and the enzyme.\nFIG. 6 depicts data related to detection of S. enterica DNA target (50,000 copies) by APA reactions in a wet “hot-start” format mediated by CleanAmp™ deoxynucleotides (CAdNTP) containing Tris pH7.6, KCl, (NH4)2SO4, MgSO4, Triton X-100, SYBRI, CAdNTP, 9° Nm™ DNA polymerase, with additions of 0.4% SDS (X), 4% hydroxypropyl β-CD (squares), SDS then immediately β-CD (circles), or β-CD then SDS (solid line) with mixing. Control (ctrl dotted line) was no additions. All samples included DNA target. Isothermal APA was at 68° C., collecting intercalating dye fluorescence every 15 seconds to monitor all exponential DNA amplification. […] Negative controls for each condition without S. enterica DNA confirmed specificity of indicated amplification products (not shown)."}},
  "data": [
    {"smiles": "CCCCCCCCCCCCOS(=O)(=O)[O-].[Na+]", "note": "[SDS, sodium dodecyl sulfate]", "values": [
      {"measurement": "Reversibility of nasal RNase inactivation after SDS sequestration", "setting": "nasal ribonuclease", "value": "virtually completely reversible"},
      {"measurement": "Liberation of target DNA from elementary bodies (lysis)", "setting": "[1]", "value": "as effective in liberating target DNA as the heat lysis"},
      {"measurement": "RNA detectability eliminated by recovered RNase activity (assay calibration)", "setting": "nasal swab ribonucleases; 0.2% SDS without DTT, 2-minute incubation at 58° C.", "value": "> 95", "unit": "%"},
      {"measurement": "Influenza B RNA detection after nasal swab eluate pretreatment and SDS sequestration", "setting": "nasal swab ribonucleases; nasal swab eluate 4% of swab, 0.2% SDS with or without 10 mM DTT, 2 minutes at 58° C., then 4% βCD", "value": "no detection"},
      {"measurement": "Influenza B RNA detection by APA after RNase A pretreatment", "setting": "RNase A", "value": "did not prevent significant restoration of RNase A activity"},
      {"measurement": "SDS concentration with inhibitory effect for PCR with Taq polymerase", "setting": "Taq polymerase", "value": "greater than 0.01 % (w/v)"},
      {"measurement": "SDS concentration inhibitory to APA amplification of DNA", "setting": "9° Nm™ DNA polymerase [2]", "value": "> 0.01", "unit": "%"},
      {"measurement": "Effect on APA amplification", "setting": "9° Nm™ DNA polymerase [3]; 0.4% SDS alone, S. enterica DNA 50,000 copies", "value": "Barrier to amplification"},
      {"measurement": "Effect on 9° Nm™ DNA polymerase", "setting": "9° Nm™ DNA polymerase [3]; 0.4% SDS then immediately β-CD (brief exposure)", "value": "sufficient to inactivate"}
    ]}
  ]
}
